Assay results from patent publication US20070049564A1 (Wyeth, priority 2005, published 2007).
Where two headings read alike, the source gives them in different places.

Key:
E. faecalis GC 2242 = test: MIC, broth microdilution; conditions: Enterococcus faecalis
S. pyogenes GC 4563 = test: MIC, broth microdilution; conditions: Streptococcus pyogenes
S. aureus GC 1079 = test: MIC, broth microdilution; conditions: Staphylococcus aureus
S. aureus GC 6335 = test: MIC, broth microdilution; conditions: Staphylococcus aureus
E. coli GC 4559 = test: MIC, broth microdilution; conditions: Escherichia coli
E. coli GC 2271 = test: MIC, broth microdilution; conditions: Escherichia coli
c. albicans GC 3066 = test: MIC, broth microdilution
E. coli GC 2235 = test: MIC, broth microdilution; conditions: Escherichia coli
E. coli GC 1073 = test: MIC, broth microdilution; conditions: Escherichia coli
E. coli GC 2234 = test: MIC, broth microdilution; conditions: Escherichia coli
Staph. aureus Smith = test: In vivo activity (oral, iv; ED50) against Staph. aureus Smith in mice
Protocol: Representative examples of compounds of Formula I were tested for the oral efficacy using S. aureus Smith in mice.

S. epidermidis GC 4935 = test: MIC, broth microdilution; conditions: Staphylococcus epidermidis
E. faecium GC 4556 = test: MIC, broth microdilution; conditions: Enterococcus faecium
S. pneumoniae+ GC 4465 = test: MIC, broth microdilution; conditions: Streptococcus pneumoniae
E. coli GC 2233 = test: MIC, broth microdilution; conditions: Escherichia coli
P. aeruginosa GC 2214 = test: MIC, broth microdilution; conditions: Pseudomonas aeruginosa
E. coli GC 2236 = test: MIC, broth microdilution; conditions: Escherichia coli
S. aureus GC 1131 = test: MIC, broth microdilution; conditions: Staphylococcus aureus
S. aureus GC 2216 = test: MIC, broth microdilution; conditions: Staphylococcus aureus
E. coli GC 2270 = test: MIC, broth microdilution; conditions: Escherichia coli

CCC(C)(C)C(=O)OCOC(=O)N(CC(=O)Nc1cc(N(C)C)c2c(c1O)C(=O)C1=C(O)[C@]3(O)C(=O)C(C(N)=O)=C(O)[C@@H](N(C)C)[C@@H]3C[C@@H]1C2)C(C)(C)C [Example 44, ({[(2-{[(5aR,6aS,7S,10aS)-9-(aminocarbonyl)-4,7-bis(dimethylamino)-1,8,10a,11-tetrahydroxy-10,12-dioxo-5,5a,6,6a,7,10,10a,12-octahydrotetracen-2-yl]amino}-2-oxoethyl)(tert-butyl)amino]carbonyl}oxy)methyl 2,2-dimethylbutanoate]
1 µg/mL: MIC (S. pyogenes GC 4563; GC4563, read-out: MINIMAL INHIBITORY CONCENTRATION MIC, pre-incubated in Mouse Serum)
4 µg/mL: MIC (E. faecalis GC 2242; GC2242, read-out: MINIMAL INHIBITORY CONCENTRATION MIC, pre-incubated in Human Serum) | MIC (E. faecalis GC 2242; GC2242, read-out: MINIMAL INHIBITORY CONCENTRATION MIC, pre-incubated in Water) | MIC (S. pyogenes GC 4563; GC4563, read-out: MINIMAL INHIBITORY CONCENTRATION MIC, pre-incubated in Human Serum) | MIC (S. aureus GC 1079; GC1079, read-out: MINIMAL INHIBITORY CONCENTRATION MIC, pre-incubated in Water) | MIC (S. aureus GC 6335; GC6335, read-out: MINIMAL INHIBITORY CONCENTRATION MIC, pre-incubated in Human Serum) | MIC (S. aureus GC 6335; GC6335, read-out: MINIMAL INHIBITORY CONCENTRATION MIC, pre-incubated in Water) | MIC (E. coli GC 4559; GC4559, read-out: MINIMAL INHIBITORY CONCENTRATION MIC, pre-incubated in Mouse Serum) | MIC (E. coli GC 1073; GC1073, read-out: MINIMAL INHIBITORY CONCENTRATION MIC, pre-incubated in Mouse Serum) | MIC (S. epidermidis GC 4935; GC4935, read-out: MINIMAL INHIBITORY CONCENTRATION MIC, pre-incubated in Human Serum) | MIC (S. epidermidis GC 4935; GC4935, read-out: MINIMAL INHIBITORY CONCENTRATION MIC, pre-incubated in Water) | MIC (E. faecium GC 4556; GC4556, read-out: MINIMAL INHIBITORY CONCENTRATION MIC, pre-incubated in Human Serum) | MIC (E. faecium GC 4556; GC4556, read-out: MINIMAL INHIBITORY CONCENTRATION MIC, pre-incubated in Water) | MIC (S. pneumoniae+ GC 4465; read-out: MINIMAL INHIBITORY CONCENTRATION MIC, pre-incubated in Human Serum) | MIC (S. pneumoniae+ GC 4465; read-out: MINIMAL INHIBITORY CONCENTRATION MIC, pre-incubated in Mouse Serum) | MIC (S. pneumoniae+ GC 4465; read-out: MINIMAL INHIBITORY CONCENTRATION MIC, pre-incubated in Water) | MIC (S. aureus GC 1131; GC1131, read-out: MINIMAL INHIBITORY CONCENTRATION MIC, pre-incubated in Water)
> 64 µg/mL: MIC (E. coli GC 4559; GC4559, read-out: MINIMAL INHIBITORY CONCENTRATION MIC, pre-incubated in Human Serum) | MIC (E. coli GC 4559; GC4559, read-out: MINIMAL INHIBITORY CONCENTRATION MIC, pre-incubated in Water) | MIC (E. coli GC 2271; GC2271, read-out: MINIMAL INHIBITORY CONCENTRATION MIC, pre-incubated in Human Serum) | MIC (E. coli GC 2271; GC2271, read-out: MINIMAL INHIBITORY CONCENTRATION MIC, pre-incubated in Water) | MIC (c. albicans GC 3066; Candida albicans, GC3066, read-out: MINIMAL INHIBITORY CONCENTRATION MIC) | MIC (E. coli GC 2235; GC2235, read-out: MINIMAL INHIBITORY CONCENTRATION MIC, pre-incubated in Human Serum) | MIC (E. coli GC 2235; GC2235, read-out: MINIMAL INHIBITORY CONCENTRATION MIC, pre-incubated in Water) | MIC (E. coli GC 1073; GC1073, read-out: MINIMAL INHIBITORY CONCENTRATION MIC, pre-incubated in Human Serum) | MIC (E. coli GC 1073; GC1073, read-out: MINIMAL INHIBITORY CONCENTRATION MIC, pre-incubated in Water) | MIC (E. coli GC 2234; GC2234, read-out: MINIMAL INHIBITORY CONCENTRATION MIC, pre-incubated in Human Serum) | MIC (E. coli GC 2234; GC2234, read-out: MINIMAL INHIBITORY CONCENTRATION MIC, pre-incubated in Water) | MIC (E. coli GC 2233; GC2233, read-out: MINIMAL INHIBITORY CONCENTRATION MIC, pre-incubated in Human Serum) | MIC (E. coli GC 2233; GC2233, read-out: MINIMAL INHIBITORY CONCENTRATION MIC, pre-incubated in Water) | MIC (P. aeruginosa GC 2214; GC2214, read-out: MINIMAL INHIBITORY CONCENTRATION MIC, pre-incubated in Human Serum) | MIC (P. aeruginosa GC 2214; GC2214, read-out: MINIMAL INHIBITORY CONCENTRATION MIC, pre-incubated in Mouse Serum) | MIC (P. aeruginosa GC 2214; GC2214, read-out: MINIMAL INHIBITORY CONCENTRATION MIC, pre-incubated in Water) | MIC (E. coli GC 2236; GC2236, read-out: MINIMAL INHIBITORY CONCENTRATION MIC, pre-incubated in Human Serum) | MIC (E. coli GC 2236; GC2236, read-out: MINIMAL INHIBITORY CONCENTRATION MIC, pre-incubated in Water) | MIC (E. coli GC 2270; GC2270, read-out: MINIMAL INHIBITORY CONCENTRATION MIC, pre-incubated in Human Serum) | MIC (E. coli GC 2270; GC2270, read-out: MINIMAL INHIBITORY CONCENTRATION MIC, pre-incubated in Water)
>64 UG/ML: MINIMAL INHIBITORY CONCENTRATION MIC (c. albicans GC 3066; pre-incubated in Human Serum) | MINIMAL INHIBITORY CONCENTRATION MIC (c. albicans GC 3066; pre-incubated in Mouse Serum)
0.75 mg/kg: ED50 (Staph. aureus Smith; Staphylococcus aureus, in Mus musculus, iv, read-out: ED50 SIV (Staph aureus Smith)) | ED50 (Staph. aureus Smith; iv, read-out: ED50 Staph Smith SIV)
2 µg/mL: MIC (E. faecalis GC 2242; GC2242, read-out: MINIMAL INHIBITORY CONCENTRATION MIC, pre-incubated in Mouse Serum) | MIC (S. pyogenes GC 4563; GC4563, read-out: MINIMAL INHIBITORY CONCENTRATION MIC, pre-incubated in Water) | MIC (S. aureus GC 1079; GC1079, read-out: MINIMAL INHIBITORY CONCENTRATION MIC, pre-incubated in Human Serum) | MIC (S. aureus GC 1079; GC1079, read-out: MINIMAL INHIBITORY CONCENTRATION MIC, pre-incubated in Mouse Serum) | MIC (S. aureus GC 6335; GC6335, read-out: MINIMAL INHIBITORY CONCENTRATION MIC, pre-incubated in Mouse Serum) | MIC (E. coli GC 2271; GC2271, read-out: MINIMAL INHIBITORY CONCENTRATION MIC, pre-incubated in Mouse Serum) | MIC (E. coli GC 2235; GC2235, read-out: MINIMAL INHIBITORY CONCENTRATION MIC, pre-incubated in Mouse Serum) | MIC (E. coli GC 2234; GC2234, read-out: MINIMAL INHIBITORY CONCENTRATION MIC, pre-incubated in Mouse Serum) | MIC (S. epidermidis GC 4935; GC4935, read-out: MINIMAL INHIBITORY CONCENTRATION MIC, pre-incubated in Mouse Serum) | MIC (E. faecium GC 4556; GC4556, read-out: MINIMAL INHIBITORY CONCENTRATION MIC, pre-incubated in Mouse Serum) | MIC (E. coli GC 2233; GC2233, read-out: MINIMAL INHIBITORY CONCENTRATION MIC, pre-incubated in Mouse Serum) | MIC (E. coli GC 2236; GC2236, read-out: MINIMAL INHIBITORY CONCENTRATION MIC, pre-incubated in Mouse Serum) | MIC (S. aureus GC 1131; GC1131, read-out: MINIMAL INHIBITORY CONCENTRATION MIC, pre-incubated in Human Serum) | MIC (S. aureus GC 1131; GC1131, read-out: MINIMAL INHIBITORY CONCENTRATION MIC, pre-incubated in Mouse Serum) | MIC (S. aureus GC 2216; GC2216, read-out: MINIMAL INHIBITORY CONCENTRATION MIC, pre-incubated in Human Serum) | MIC (S. aureus GC 2216; GC2216, read-out: MINIMAL INHIBITORY CONCENTRATION MIC, pre-incubated in Mouse Serum) | MIC (S. aureus GC 2216; GC2216, read-out: MINIMAL INHIBITORY CONCENTRATION MIC, pre-incubated in Water) | MIC (E. coli GC 2270; GC2270, read-out: MINIMAL INHIBITORY CONCENTRATION MIC, pre-incubated in Mouse Serum)
4 mg/kg: ED50 (Staph. aureus Smith; Staphylococcus aureus, in Mus musculus, po, read-out: ED50 SOD (Staph aureus Smith)) | ED50 (Staph. aureus Smith; Staphylococcus aureus, in Mus musculus, po, read-out: ED50 Staph Smith SOD)
